Source: PubChem BioAssay (NCI)
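Each compound was tested at five concentrations against cells in 96-well plates for 48 hours. TGI denotes the concentration required for complete inhibition of growth.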

Experiments:
Assay in all cases: DTP human tumour cell line panel, 48 h
SK-MEL-2 melanoma = tested on: SK-MEL-2 melanoma
NCI-H226 lung = tested on: NCI-H226 lung
SNB-19 CNS = tested on: SNB-19 CNS
NCI-H522 lung = tested on: NCI-H522 lung
SR leukemia = tested on: SR leukemia
SN12C renal = tested on: SN12C renal
IGROV1 ovarian = tested on: IGROV1 ovarian
SF-295 CNS = tested on: SF-295 CNS
MDA-N = tested on: MDA-N
HL-60(TB) leukemia = tested on: HL-60(TB) leukemia
HCT-15 colon = tested on: HCT-15 colon
HOP-92 NSCLC = tested on: HOP-92 NSCLC
HT29 colon = tested on: HT29 colon
LOX IMVI melanoma = tested on: LOX IMVI melanoma
NCI-H23 lung = tested on: NCI-H23 lung
RPMI-8226 leukemia = tested on: RPMI-8226 leukemia
HCT-116 colon = tested on: HCT-116 colon
ACHN renal = tested on: ACHN renal
CAKI-1 renal = tested on: CAKI-1 renal
MCF7 breast = tested on: MCF7 breast

Structure (SMILES)	TGI (SK-MEL-2 melanoma) [µM]	TGI (NCI-H226 lung) [µM]	TGI (SNB-19 CNS) [µM]	TGI (NCI-H522 lung) [µM]	TGI (SR leukemia) [µM]	TGI (SN12C renal) [µM]	TGI (IGROV1 ovarian) [µM]	TGI (SF-295 CNS) [µM]	TGI (MDA-N) [µM]	TGI (HL-60(TB) leukemia) [µM]	TGI (HCT-15 colon) [µM]	TGI (HOP-92 NSCLC) [µM]	TGI (HT29 colon) [µM]	TGI (LOX IMVI melanoma) [µM]	TGI (NCI-H23 lung) [µM]	TGI (RPMI-8226 leukemia) [µM]	TGI (HCT-116 colon) [µM]	TGI (ACHN renal) [µM]	TGI (CAKI-1 renal) [µM]	TGI (MCF7 breast) [µM]
CC(C)[Si]1(C(C)C)OCC2OC(n3ccc(=O)[nH]c3=O)C([Se]c3ccccc3)C2O[Si](C(C)C)(C(C)C)O1 (configuration not stated)	20.1	3.88	0.677	4.36	27.1	5.57	9.49	18	12.7	> 25.4	16.3	13	3.99	2.45	13	10.9	7.16	6.59	24.3	8.27
O=c1[nH][nH]c(=O)c2c1ccc1oc3ccccc3c12	> 100	> 100	> 100	> 100	> 100	> 100	> 100	> 100	> 100	> 100		> 100	> 100		> 100	> 100	> 100	> 100	> 100	> 100
Cc1ccc(C(=O)Oc2ccccc2)cc1N=NN(C)C	> 100	> 100	> 100	> 100	> 100	> 100	> 100	> 100	> 100	> 100	> 100	> 100	> 100	> 100	> 100	> 100	> 100	> 100	> 100	> 100
CCSC1=N/C(=C\c2ccco2)C(=O)N1	> 100	> 100	> 100	> 100	> 100	> 100	> 100	> 100	> 100		> 100	> 100	> 100	> 100	> 100	> 100	> 100	> 100		> 100
O=C1CSC(c2ccccc2O)N1c1ccc(-n2c(-c3ccccc3)nc3ccccc3c2=O)cc1 (configuration not stated)	59.1	97.5	> 100	66	> 100	> 100	93.9	50.5	> 100	> 100	60.1	76.5	> 100	69	> 100	> 100	35.9	83.6	> 100	> 100
C1CSCC2(COC2)CSCCSCC2(COC2)CS1			> 100	> 100	> 100	> 100	> 100	> 100	> 100	> 100	> 100	> 100	> 100	> 100	> 100		> 100			> 100
COC(=O)c1ccc2c(c1)CC1(C2)Cc2ccccc2C1=O (configuration not stated)	69.8	52.7	> 100	> 100	65.7	> 100	> 100	> 100	59.8	56.9	> 100	82.9	36	57.4	> 100	38	69.4	> 100	> 100	52.5
Cc1ccc(S(=O)(=O)N2CCNCCN(S(=O)(=O)c3ccc(C)cc3)CCNCC2)cc1	41.9	44	> 100	36.5	34.1	> 100	42.9	32	40.9	25.4	> 100	46.7	30.2	25.6	> 100		28.5	89.1	73.5	53.8
NC(=O)[N+](=CC(=S)Nc1ccccc1Cl)C(N)=O	> 100	> 100	> 100	> 100	> 100	> 100	> 100	> 100	> 100	> 100	> 100	> 100	> 100	> 100	> 100	> 100	> 100	> 100	> 100	> 100
Cc1ccc(S(=O)(=O)N/N=C2/CCC3(O)CC2(C)CCC2[C@H]3CC2(C)C)cc1 (some centres not stated)	69.2	70.9	> 100	91.9	> 100	> 100	74.3	93	92	> 100	> 100	87.6	99.5	28.6	83.5	> 100	75.7	> 100	> 100	> 100
CC(=O)[C@H]1[C@H](O)C[C@@]2(C)[C@@H]3CCc4cc(O)c(OC5OC(CO)C(O)C(O)C5O)cc4C3(C)C(=O)C[C@]12C (some centres not stated)	> 100	> 100	> 100	> 100	> 100	> 100	> 100	> 100	> 100	> 100	> 100	> 100	> 100	> 100	> 100		> 100	> 100	> 100	> 100
CO/C(=N\N=C\c1ccc(Cl)c(Cl)c1)c1ccncc1	> 10	> 10	> 10		> 10	> 10	> 10	> 10	> 10	> 10	> 10	> 10		> 10	> 10	> 10	> 10	> 10	> 10	> 10
COC(=O)/C=C/[C@@H]1[C@H](C)N1S(=O)(=O)c1ccc(C)cc1 (some centres not stated)	> 100	> 100	> 100	> 100	> 100	> 100	> 100	> 100	> 100	> 100	> 100		> 100	> 100	> 100	> 100	> 100	> 100	> 100	> 100
CCOC(=O)C(=CNc1ccc(F)c(F)c1)C(=O)OCC	> 100	> 100	> 100	> 100	> 100	> 100	> 100		> 100	> 100	> 100	> 100	> 100	> 100	> 100	> 100	> 100	> 100	> 100	> 100
CC(=O)N1C(Nc2nccs2)CCN1c1ccccc1 (configuration not stated)	> 10	> 10	> 10		> 10	> 10	> 10	> 10	> 10	> 10	> 10	> 10	> 10	> 10	> 10	> 10	> 10	> 10	> 10	> 10
CC(C)[C@H]1NC(=O)[C@H]2N=C(S[C@H]2C)[C@@H]2CCCN2C(=O)[C@H](Cc2ccccc2)NC(=O)[C@@H]2CSC(=N2)[C@@H](Cc2ccccc2)NC(=O)[C@@H]2CSC1=N2	> 50	> 50	> 50	45	19.7	> 50	> 50	> 50	> 50	16.3	> 50		> 50	> 50	> 50	19.8	> 50	> 50	> 50	> 50
O=C(NCCNCCNC(=O)c1cc(-c2ccccc2)nc2ccccc12)c1cc(-c2ccccc2)nc2ccccc12	3.13	9.16	24.3	6.97	5.37	7.59	7.25	3.28	3.42	5	8.19	6.17	3.24	3.05	22.3		3.18	4.85	24.1	3.96
CC(C)(C)O/N=C/c1cc(NC(=S)c2ccsc2)ccc1Cl	29.5	35.9		33.6	13.9	32.2	34.9	25.3	29.8	39	27.7	37.7	26.1	30.7	20.7	12.2	26.5		30.2	24.8
CC(=O)Nc1cccc(N2C(=O)/C(=C\c3cccc(Oc4ccccc4)c3)SC2c2ccccc2)c1 (configuration not stated)	> 100	> 100	> 100	> 100	47.1	> 100		> 100	> 100	> 100	> 100	> 100	> 100	> 100	> 100	89	> 100	> 100	> 100	> 100
Cc1nn(C(=O)c2ccncc2)c2c1C(c1ccccc1[N+](=O)[O-])SC(N)=N2 (configuration not stated)	> 10	> 10	> 10		> 10	> 10	> 10	> 10	> 10	> 10	> 10	> 10	> 10	> 10	> 10	> 10	> 10	> 10	> 10	> 10
Cc1c(/C=N/NC(=S)N2CCCCC2)c(=O)n(-c2ccccc2)n1C		> 100	> 100	> 100	> 100		> 100	> 100	> 100	95	> 100	> 100	> 100	> 100	> 100	> 100	> 100	98.5	> 100	> 100
O=C1NCN(c2ccccc2)C12CCN(CC1COc3ccccc3O1)CC2 (configuration not stated)	> 100	> 100	85.3	> 100	> 100	> 100	> 100	> 100	> 100	> 100	> 100		> 100	> 100	> 100	> 100	> 100	> 100	> 100	> 100
C=CCN1CCC(c2cc(C(=O)OCC)[nH]c2-c2cc(C)no2)C1=O (configuration not stated)	> 100	> 100	> 100		> 100	> 100	> 100	> 100	> 100	> 100	> 100	> 100	> 100	> 100	> 100	> 100	> 100		> 100	> 100
CCOc1ccc(NC(=O)C(=O)Nn2c(N)nnc2N)cc1	> 100	> 100		> 100	> 100	> 100	> 100	> 100	> 100	> 100	> 100	> 100	> 100	> 100	> 100	> 100	> 100	> 100	> 100	> 100
